Measured values taken from ChEMBL document CHEMBL1132834, “Phenylpropenamide derivatives as inhibitors of hepatitis B virus replication” (Bioorg Med Chem Lett, 2000).

Legend:
[1] = test system: Human alphaherpesvirus 1; assay: Inhibition of HSV-1 replication by 50% (no effect at this concentration); assay type: functional, organism-based
[2] = Inhibition of Woodchuck HBV replication by 50% (no effect at this concentration); assay type: functional, organism-based; conditions: Marmota monax
[3] = Reduction of viable cell numbers by 50% was evaluated by HepAD38 cellular assay; assay type: ADME, cell-based; conditions: human, HepAD38 cells; read-out: TC50 (the source's name)
[4] = test system: Human immunodeficiency virus 1; assay: Inhibition of HIV-1 replication by 50% (no effect at this concentration); assay type: functional, organism-based
[5] = test system: Vesicular stomatitis virus; assay: Inhibition of Vesicular stomatis virus replication by 50% (no effect at this concentration); assay type: functional, organism-based
[6] = Inhibition of Duck HBV replication by 50% (no effect at this concentration); assay type: functional, organism-based; conditions: Anas sp.
[7] = test system: Newcastle disease virus; assay: Inhibition of Newcastles disease virus replication by 50% (no effect at this concentration); assay type: functional, organism-based; conditions: avian paramyxovirus 1
[8] = (§1) Inhibition of hepatitis B virus replication in the HepAD38 cell line.; assay type: functional, cell-based; conditions: Homo sapiens
[9] = test system: HepG2; assay: as §1; assay type: functional, cell-based; conditions: Homo sapiens
[10] = Concentration which inhibits hepatitis B virus replication in the HepAD38 cell line.; assay type: functional; conditions: Homo sapiens
[11] = test system: HepG2; assay: The concentration of compound which inhibits hepatitis B virus replication in the HepAD38 cell line.; conditions: Homo sapiens

| Compound | EC50 [1] [µM] | EC50 [2] [µM] | CC50 [3] [µM] | EC50 [4] [µM] | EC50 [5] [µM] | EC50 [6] [µM] | EC50 [7] [µM] | EC50 [8] [µM] | EC50 [9] [µM] | EC90 [10] [µM] | EC90 [11] [µM] |
| --- | --- | --- | --- | --- | --- | --- | --- | --- | --- | --- | --- |
| O=C(N/C(C(=O)N1CCCCC1)=C(/Cl)c1ccc(Cl)cc1)c1ccccc1 | > 81 | > 81 | 45 | > 81 | > 81 | > 81 | > 81 | – | – | – | – |
| O=C(N/C(C(=O)N1CCCCC1)=C(/Br)c1ccc(F)cc1)c1ccccc1 | > 81 | > 81 | > 70 | > 81 | > 81 | > 81 | > 81 | 3.9 | – | – | – |
| O=C(Nc1nccs1)/C(NC(=O)c1ccccc1)=C(\Cl)c1ccccc1 | – | – | – | – | – | – | – | – | > 75 | – | – |
| O=C(N/C(C(=O)N1CCCCC1)=C(/Cl)c1ccccc1F)c1ccccc1 | > 81 | > 81 | 31 | > 81 | > 81 | > 81 | > 81 | – | – | – | – |
| Cc1ccc(C(=O)N/C(C(=O)N2CCCCC2)=C(/Br)c2ccccc2)cc1 | > 81 | > 81 | > 70 | > 81 | > 81 | > 81 | > 81 | 2.1 | – | 12 | – |
| COc1ccccc1/C(Br)=C(\NC(=O)c1ccc([N+](=O)[O-])cc1)C(=O)N1CCCCC1 | > 81 | > 81 | > 61 | > 81 | > 81 | > 81 | > 81 | 0.13 | – | 0.92 | – |
| O=C(N/C(C(=O)N1CCCCC1)=C(/Br)c1ccccc1)c1ccc(C(F)(F)F)cc1 | > 81 | > 81 | > 62 | > 81 | > 81 | > 81 | > 81 | 5 | – | 34 | – |
| O=C(N/C(C(=O)N1CCCCC1)=C(/Cl)c1ccc(F)cc1)c1ccccc1 | > 81 | > 81 | > 75 | > 81 | > 81 | > 81 | > 81 | 3.1 | – | 28 | – |
| O=C(N/C(C(=O)N1CCCCC1)=C(/Br)c1ccccc1F)c1ccccc1 | > 81 | > 81 | 70 | > 81 | > 81 | > 81 | > 81 | 1.5 | – | – | – |
| O=C(N/C(C(=O)N1CCCCCC1)=C(/Cl)c1ccccc1)c1ccccc1 | – | – | – | – | – | – | – | – | > 75 | – | – |
| CCN(CC)C(=O)/C(NC(=O)c1ccccc1)=C(\Cl)c1ccccc1 | – | – | – | – | – | – | – | – | > 75 | – | – |
| COc1ccc(C(=O)N/C(C(=O)N2CCCCC2)=C(/Br)c2ccccc2)cc1 | > 81 | > 81 | > 67 | > 81 | > 81 | > 81 | > 81 | 1.9 | – | 19 | – |
| O=C(N/C(C(=O)N1CCCCC1)=C(/Br)c1ccc(Cl)cc1)c1ccccc1 | > 81 | > 81 | 55 | > 81 | > 81 | > 81 | > 81 | 11 | – | – | – |
| O=C(NCc1ccccc1)/C(NC(=O)c1ccccc1)=C(\Cl)c1ccccc1 | – | – | – | – | – | – | – | – | > 75 | – | – |
| O=C(N/C(C(=O)N1CCCCC1)=C(/Br)c1ccccc1F)c1ccc([N+](=O)[O-])cc1 | > 81 | > 81 | 42 | > 81 | > 81 | > 81 | > 81 | 0.31 | – | 1.8 | – |
| O=C(N/C(C(=O)N1CCCCC1)=C(/Br)c1ccccc1)c1ccccc1 | > 81 | > 81 | > 72 | > 81 | > 81 | > 81 | > 81 | 1.3 | – | 21 | – |
| Cc1ccccc1/C(Br)=C(\NC(=O)c1ccc([N+](=O)[O-])cc1)C(=O)N1CCCCC1 | > 81 | > 81 | > 63 | > 81 | > 81 | > 81 | > 81 | 0.6 | – | 4.6 | – |
| O=C(N/C(C(=O)N1CCCCC1)=C(/Cl)c1ccccc1)c1ccccc1 | > 81 | > 81 | > 81 | > 81 | > 81 | > 81 | > 81 | 1.2 | – | 13 | – |

| Compound | EC50 [1] [µM] | EC50 [2] [µM] | CC50 [3] [µM] | EC50 [4] [µM] | EC50 [5] [µM] | EC50 [6] [µM] | EC50 [7] [µM] | EC50 [8] [µM] | EC50 [9] [µM] | EC90 [10] [µM] | EC90 [11] [µM] |
| --- | --- | --- | --- | --- | --- | --- | --- | --- | --- | --- | --- |
| Cc1ccccc1/C(Br)=C(\NC(=O)c1ccccc1)C(=O)N1CCCCC1 | > 81 | > 81 | > 70 | > 81 | > 81 | > 81 | > 81 | 0.89 | – | – | – |
| O=C(N/C(C(=O)N1CCCCC1)=C(/Br)c1ccccc1)c1ccc(Br)cc1 | > 81 | > 81 | > 61 | > 81 | > 81 | > 81 | > 81 | 0.53 | – | 3.7 | – |
| O=C(N/C(C(=O)N1CCCCC1)=C(/Br)c1ccc(Cl)cc1)c1ccc([N+](=O)[O-])cc1 | > 81 | > 81 | > 60 | > 81 | > 81 | > 81 | > 81 | 1.6 | – | – | – |
| COc1ccccc1/C(Br)=C(\NC(=O)c1ccccc1)C(=O)N1CCCCC1 | > 81 | > 81 | > 70 | > 81 | > 81 | > 81 | > 81 | 2.1 | – | – | – |
| Cc1ccc(/C(Br)=C(\NC(=O)c2ccccc2)C(=O)N2CCCCC2)cc1 | > 81 | > 81 | > 70 | > 81 | > 81 | > 81 | > 81 | 2.8 | – | – | – |
| O=C(N/C(C(=O)N1CCCC1)=C(/Cl)c1ccccc1)c1ccccc1 | – | – | – | – | – | – | – | – | 5.6 | – | – |
| O=C(N/C(C(=O)N1CCCCC1)=C(/Br)c1ccccc1)c1ccc([N+](=O)[O-])cc1 | > 81 | > 81 | > 65 | > 81 | > 81 | > 81 | > 81 | 0.35 | – | 3 | – |
| COc1ccc(/C(Br)=C(\NC(=O)c2ccccc2)C(=O)N2CCCCC2)cc1 | > 81 | > 81 | > 67 | > 81 | > 81 | > 81 | > 81 | 13 | – | – | – |
| O=C(N/C(C(=O)N1CCCCC1)=C(/Br)c1ccccc1)c1ccc(F)cc1 | > 81 | > 81 | > 69 | > 81 | > 81 | > 81 | > 81 | 0.86 | – | 4.4 | – |
| O=C(N/C(C(=O)N1CCCCC1)=C(/Br)c1ccc(F)cc1)c1ccc([N+](=O)[O-])cc1 | > 81 | > 81 | > 63 | > 81 | > 81 | > 81 | > 81 | 0.72 | – | 11 | – |
| COc1ccc(C(=O)N/C(C(=O)N2CCCCC2)=C(/Cl)c2ccccc2)cc1 | > 81 | > 81 | > 75 | > 81 | > 81 | > 81 | > 81 | 5.2 | – | – | – |
| O=C(N/C(C(=O)N1CCOCC1)=C(/Cl)c1ccccc1)c1ccccc1 | – | – | – | – | – | – | – | – | 7.3 | – | – |
| COc1ccc(/C(Cl)=C(\NC(=O)c2ccccc2)C(=O)N2CCCCC2)cc1 | > 81 | > 81 | > 75 | > 81 | > 81 | > 81 | > 81 | > 75 | – | – | – |
| O=C(N/C(C(=O)N1CCCCC1)=C(/Cl)c1ccccc1)c1ccc(F)cc1 | > 81 | > 81 | > 67 | > 81 | > 81 | > 81 | > 81 | 1.3 | – | 5.5 | – |
| O=C(N/C(C(=O)N1CCCCC1)=C(/Br)c1ccccc1)c1ccc(Cl)cc1 | > 81 | > 81 | > 67 | > 81 | > 81 | > 81 | > 81 | 0.54 | – | 3.1 | – |
| O=C(N/C(C(=O)N1CCCCCCC1)=C(/Cl)c1ccccc1)c1ccccc1 | – | – | – | – | – | – | – | – | > 75 | – | – |
| O=C(N/C(C(=O)N1CCCCC1)=C(/Cl)c1ccccc1)c1ccc(C(F)(F)F)cc1 | > 81 | > 81 | > 69 | > 81 | > 81 | > 81 | > 81 | > 69 | – | – | – |
| Nc1nc(=O)n([C@@H]2CS[C@H](CO)O2)cc1F [EMTRICITABINE] | > 81 | > 81 | – | > 81 | > 81 | > 81 | > 81 | – | 0.03 | – | 0.3 |
